From US20220079194A1, “EXTRUDATE FOOD COMPOSITIONS COMPRISING CULTIVATED ANIMAL CELLS AND METHODS OF PRODUCTION THEREOF” (GOOD Meat, Inc., priority 2020, published 2022)

Legend:
C1F cells [1] = assay: Sodium oxamate treatment of C1F suspension culture (lactate, glucose, growth); type: cell-based, chicken
Method: […] cells were cultivated in suspension culture supplemented with 1.25% bovine serum. Different concentrations of sodium oxamate were tested: 1, 3, 5, 10, 30, 60, 100, and 200 mM, and production of lactate, glucose consumption, cell growth rates and cell density were measured. The specific rates were calculated using daily viable cell concentration and metabolite concentrations for the duration of the cell culture. Specific net growth rates (UN) were calculated as a change in VCD over a time interval t1 to t2 using equation (1): Specific glucose consumption rate (qGluc) or specific lactate production rate (qLac) were determined using equation (2), where P is glucose or lactate concentration: Viable cell density (VCD) and viability were determined by the trypan blue exclusion method using the Vi-cellTM (Beckman Coulter) from 1 mL daily samples taken from shake flask cell culture. Gas and pH values including metabolite (glucose, lactate glutamine, glutamate, ammonium) concentrations were measured using the Bioprofile Flex analyzer (Nova Biomedical). Osmolality was measured using the OsmoPro Multi-Sample Micro-Osmometer (Advanced Instruments) which employs the freezing point technology. To further examine if the effects of oxamate remained similar in cell culture with metabolic by-products already present, we passaged cells treated with 30 mM oxamate using a 1:3 (v/v) split with fresh media (1⁄3 of the volume of spent media and 2⁄3 of fresh media). Having been used in culture for several days, carried over media invariably contains residual amounts (carryover) of metabolites resultant from cell consumption.

C1F cells [2] = assay: as above; type: cell-based, chicken; conditions: 10, 15, 20 and 30 mM, 3-day batch cell culture
C1F chicken cells = assay: Alternative sugars as carbon source for C1F suspension cultures; type: cell-based; conditions: for viable cell density at peak: 3 g/L sugar from day 0, batch, day 3, 1.25% FBS
Method: We evaluated the impact of alternative sugars (mannose, fructose and galactose) on the growth and metabolism of an in-house C1F chicken cells grown in suspension cultures containing 1.25% FBS. Specific net growth rate (uN) and Specific glucose consumption rate (qGluc) or specific lactate production rate (qLac) were calculated according to equation 1 or 2 as disclosed in Example 12.
Suspension cultures as described herein were cultivated using 3 g/L of the respective sugars were added from day 0 and cultured in a batch mode up to day 3. On day 3 after sampling, an additional 3 g/L of each sugar was added to the respective flasks. By day 3, at the peak cell density, flasks that used glucose as carbon source had the highest viable cell density (˜2.805×10^6 cells/mL), followed by flasks with mannose (˜2.40×10^6 cells/mL), then fructose (1.935×10^6 cells/mL) and lastly galactose (0.915×10^6 cells/mL).
Since we observed that the C1F cells could utilize fructose as a carbon source, we evaluated the effect of different starting concentration of fructose. In one experiment, 6 g/L of fructose was added to one set of duplicate flasks from day 0, and 3 g/L of fructose added each to another set of duplicate flasks from day 0. In the flasks starting with 3 g/L of fructose, an additional 3 g/L of fructose was added on day 1 of one of the duplicates and day 2 of the other duplicate.
We next evaluated the effect of combining glucose, mannose and fructose on growth and lactate production. Using a design-of-experiment (DOE) approach, 17 batch shake flask runs were carried out evaluating varying combinations of concentrations of glucose, mannose and fructose as energy sources for suspension chicken C1F cells. The experimental design used included 3 factors (glucose, mannose and fructose) and 4 levels (0, 0.5, 1.5 and 3.0 g/L). By day 3, cells with the base carbon sources 3.0 glucose/0.5 fructose/0.5 mannose had the highest viable cell density (VCD) of 3.8×10^6 cell/mL, followed by 3.0 glucose/0.0 fructose/3.0 mannose and 3.0 glucose/3.0 fructose/3.0 mannose. […]

NC(=O)C(=O)[O-].[Na+] [oxamate, sodium oxamate]
reduction in lactate production (C1F cells [1]; 10 mM, day 2, C1F-SCM batch shake flasks, vs control, p<0.05): 28%
cell viability and osmolality of the media (C1F cells [1]; 30 mM): not compromised
specific glucose consumption (qGluc) (C1F cells [1]; 30 mM): decreased
increase in maximum viable cell density (C1F cells [1]; 30 mM vs control): ~44%
ammonium accumulation (C1F cells [1]; 30 mM, between days 3 and 5, relative to non-treated control): spiked out
reduction in cumulative lactate production (C1F cells [1]; 30 mM, by day 5, vs control group): ~23%
peak viable cell density (C1F cells [1]; 30 mM, day 5, passaged 1:3 with spent media carryover): 2.79×10^6 cells/mL
lactate production (C1F cells [1]; 30, 60, 100 and 200 mM, 3-day batch culture): concentration-dependent decrease
lactate production vs control (C1F cells [1]; other concentrations tested (1, 3, 5 mM), day 2, C1F-SCM batch): appreciable decrease in lactate production
decrease in lactate production (C1F cells [2]): about 52%

O=C(CO)[C@@H](O)[C@H](O)[C@H](O)CO [fructose]
viable cell density at peak (C1F chicken cells): 1.935×10^6 cells/mL
lactate accumulation, higher by day 3 (C1F chicken cells; 6 g/L from day 0 vs 3 g/L from day 0 plus 3 g/L later): 36%

O=C[C@H](O)[C@@H](O)[C@@H](O)[C@H](O)CO [galactose]
viable cell density at peak (C1F chicken cells): 0.915×10^6 cells/mL
